From US11213567B2, “ZAG-derived peptide and use thereof” (L&C Bio Co., LTD., priority 2017, dated 2022)

tested on: IgE; assay: Atopic dermatitis efficacy test using B lymphocytes (RPMI 1788): IgE released after LPS, ELISA; type: cell-based, human; parameters: key: •: have statistical significance, determining as effective, compared with the positive control; details: Table 5, 1 μg/mL for 24 hours, then LPS 0.1 μg/mL 24 hours, vs positive control
Description: (§1) To select an amino acid sequence corresponding to a key active site of ZAG having efficacy in the alleviation of atopic symptoms from 18 peptide candidate groups, an atopic dermatitis efficacy test was performed. Five types of immune-related cells were treated with ZAG peptide candidate groups (Z1-Z18, SEQ ID NOs: 1 to 18, respectively) and the ZAG protein (Z0, SEQ ID NOs: 19) at a concentration of 1 μg/mL for 24 hours, and then treated with a stimulator suitable for each cell line for the listed time to confirm an immune response. The experiment was performed with a group treated with only a stimulator as a positive control experimental group, and a group treated with only a vehicle without a stimulator as a negative control experimental group (Table 2: Efficacy test method for atopic dermatitis). An inflammatory response-related enzyme used as a stimulator is produced by immune cells, and histamine initiates an inflammatory response. The immune cells migrating to a damaged region release cytokines such as tumor necrosis factor-α (TNF-α) and interleukin-6 (IL-6) to directly lyse foreign invasive substances or collect other immune cells to initiate an inflammatory response. An efficacy test using inflammation-inducing materials, interferon-γ and skin inflammation-related factor CCL-17/thymus- and activation-regulated chemokine (TARC) was also performed to confirm an immune response.
B lymphocytes (RPMI 1788) were treated with 0.1 μg/mL of LPS as a stimulator for 24 hours, and a concentration of IgE released in a cell culture medium was confirmed by ELISA assay.
(§2) Various types of immune cells were treated with each of Z20mer-1, Z20mer-2, Z20mer-3, Z15mer-1, Z15mer-2, Z15mer-3 and Z15mer-4 at a concentration of 1 μg/mL for 24 hours, and then treated with a stimulator suitable for each cell line for the listed time to confirm an immune response. The atopic dermatitis efficacy test method was performed by the same method as described in Example 1 and Table 2.
(§3) The experiment was performed with experimental groups: 1) negative control: vehicle-treated group (Neg), 2) positive control: a group treated with only a stimulator (Pos), and 3) experimental group: groups treated with a stimulator and ZAG3 or a ZAG3-derived oligopeptide (Z20mer-1, Z20mer-2, Z20mer-3, Z15mer-1, Z15mer-2, Z15mer-3 or Z15mer-4). Concentrations were measured from cell culture by ELISA.
B lymphocytes (RPMI 1788) were treated with 0.1 μg/mL of LPS as a stimulator for 24 hours, and then a concentration of IgE released in a cell culture medium was confirmed by ELISA assay. As compared with the positive control (Pos), in all of the oligopeptide-treated groups, IgE was reduced (FIG. 2D).

Substance | B lymphocyte (human) IgE
Z20mer-2: ZAG3-derived oligopeptide, SEQ ID NO. 21: DSQLQKAREDIFMETLKDIV (ZAG protein-derived peptide) | •
Z20mer-3: ZAG3-derived oligopeptide, SEQ ID NO. 22: KAREDIFMETLKDIVEYYND (ZAG protein-derived peptide) | •

tested on: Histamine; assay: Atopic dermatitis efficacy test using mast cells (RBL-2H3): histamine released after PMA and A23187, ELISA; type: cell-based, rat; parameters: key: •: have statistical significance, determining as effective, compared with the positive control; details: Table 3; 1 μg/mL for 24 hours, then PMA 1 μg/mL, A23187 1 μg/mL 12 hours; vs stimulator only
Description: as §1
Mast cells (RBL-2H3) were treated with 1 μg/mL of PMA and 1 μg/mL of A23187 as stimulators for 12 hours, and a concentration of histamine released in a cell culture medium was confirmed by ELISA assay.
as §2, §3
Mast cells (RBL-2H3) were treated with 1 μg/mL of PMA and 1 μg/mL of A23187 as simulators for 12 hours, and then a concentration of histamine released in a cell culture medium was confirmed by ELISA assay. As compared with the positive control (Pos), in all of the oligopeptide-treated groups, the histamine release was reduced (FIG. 2B).

Substance | RBL-2H3 (rat) Histamine
Z1: ZAG protein-derived peptide, SEQ ID NO. 1: QENQDGRYSLTYIYTGLSKHVEDVPAFQAL (ZAG protein-derived peptide) | •
Z2: ZAG protein-derived peptide, SEQ ID NO. 2: GSLNDLQFFRYNSKDRKSQPMGLWRQVEGM (ZAG protein-derived peptide) | •
Z9: ZAG protein-derived peptide, SEQ ID NO. 9: TYQSWVVVAVPPQDTAPYSCHVQHSSLAQP (listed as Homo sapiens) | •
Z10: ZAG protein-derived peptide, SEQ ID NO. 10: GLSKHVEDVPAFQALGSLNDLQFFRYNSKD (ZAG protein-derived peptide) | •
Z11: ZAG protein-derived peptide, SEQ ID NO. 11: RKSQPMGLWRQVEGMEDWKQDSQLQKARED (ZAG protein-derived peptide) | •
Z15: ZAG protein-derived peptide, SEQ ID NO. 15: ENNRSSGAFWKYYYDGKDYIEFNKEIPAWV (listed as Homo sapiens) | •

same assay, conditions: Table 5; 1 μg/mL for 24 hours, then PMA 1 μg/mL, A23187 1 μg/mL 12 hours; vs positive control

Substance | RBL-2H3 (rat) Histamine
Z20mer-2: ZAG3-derived oligopeptide, SEQ ID NO. 21: DSQLQKAREDIFMETLKDIV (ZAG protein-derived peptide) | •
Z20mer-3: ZAG3-derived oligopeptide, SEQ ID NO. 22: KAREDIFMETLKDIVEYYND (ZAG protein-derived peptide) | •

tested on: CCL17/TARC; assay: Atopic dermatitis efficacy test using keratinocytes (HaCaT): CCL17/TARC released after TNF-α and IFN-γ, ELISA; type: cell-based, human; parameters: key to HaCaT (human) CCL17/TARC: •: have statistical significance, determining as effective, compared with the positive control; details: Table 3; 1 μg/mL for 24 hours, then TNF-α 0.4 μg/mL, IFN-γ 0.4 μg/mL 24 hours; vs stimulator only
Description: as §1
Keratinocytes (HaCaT cells) were treated with 0.4 μg/mL of TNF-α and 0.4 μg/mL of IFN-γ as stimulators for 24 hours, and then a concentration of CCL17/TARC released in a cell culture medium was confirmed by ELISA assay.
as §2, §3

Substance | HaCaT (human) CCL17/TARC
Z1: ZAG protein-derived peptide, SEQ ID NO. 1: QENQDGRYSLTYIYTGLSKHVEDVPAFQAL (ZAG protein-derived peptide) | •
Z2: ZAG protein-derived peptide, SEQ ID NO. 2: GSLNDLQFFRYNSKDRKSQPMGLWRQVEGM (ZAG protein-derived peptide) | •
Z10: ZAG protein-derived peptide, SEQ ID NO. 10: GLSKHVEDVPAFQALGSLNDLQFFRYNSKD (ZAG protein-derived peptide) | •

tested on: IL-4; assay: Atopic dermatitis efficacy test using T lymphocytes: IL-4 released after IL-2, ELISA; type: cell-based, human; parameters: key to T lymphocyte (human) IL-4: •: have statistical significance, determining as effective, compared with the positive control; details: Example 1-5, FIG. 1E; T lymphocytes; 1 μg/mL 24 hours, IL-2 50 ng/mL 12 hours
Description: as §1
An atopic dermatitis efficacy test using T lymphocytes was performed with six peptide candidate groups (Z3, Z4, Z5, Z12, Z14, and Z15), which were determined to have efficacy from the results of Examples 1-1 to 1-4 described above. T lymphocytes were treated with 50 ng/mL of IL-2 as a stimulator for 12 hours, and a concentration of IL-4 released in a cell culture medium was confirmed by ELISA assay.
as §2, §3
An experiment was performed on T lymphocytes using the target peptides selected through the previous experiment. As compared with the positive control (Pos), in all of the oligopeptide-treated groups (Z20mer-1, Z20mer-2, Z20mer-3, Z15mer-1, Z15mer-2, Z15mer-3, and Z15mer-4), IL-4 was reduced (FIG. 2E).

Substance | IL-4 concentration released in cell culture medium
Z15: ZAG protein-derived peptide, SEQ ID NO. 15: ENNRSSGAFWKYYYDGKDYIEFNKEIPAWV (listed as Homo sapiens) | significantly decreased

same assay, conditions: Example 2-5, FIG. 2E; T lymphocytes; 1 μg/mL 24 hours; compared with positive control (Pos)

Substance | IL-4
Z20mer-2: ZAG3-derived oligopeptide, SEQ ID NO. 21: DSQLQKAREDIFMETLKDIV (ZAG protein-derived peptide) | reduced
Z20mer-3: ZAG3-derived oligopeptide, SEQ ID NO. 22: KAREDIFMETLKDIVEYYND (ZAG protein-derived peptide) | reduced

same assay, conditions: Table 5; 1 μg/mL for 24 hours, then IL-2 50 ng/mL 12 hours; vs positive control

Substance | T lymphocyte (human) IL-4
Z20mer-2: ZAG3-derived oligopeptide, SEQ ID NO. 21: DSQLQKAREDIFMETLKDIV (ZAG protein-derived peptide) | •
Z20mer-3: ZAG3-derived oligopeptide, SEQ ID NO. 22: KAREDIFMETLKDIVEYYND (ZAG protein-derived peptide) | •

tested on: IL-6; assay: Atopic dermatitis efficacy test using macrophages (RAW 264.7): IL-6 released after LPS, ELISA; type: cell-based, mouse; parameters: key to RAW 264.7 (mouse) IL-6: •: have statistical significance, determining as effective, compared with the positive control; details: Example 2-1, FIG. 2A; RAW 264.7; 1 μg/mL 24 hours, LPS 0.1 μg/mL 24 hours; compared with positive control (Pos)
Description: as §1
Macrophages (RAW 264.7 cells) were treated with a stimulator LPS at a concentration of 0.1 μg/mL for 24 hours, and then the concentration of IL-6 released in a cell culture medium was confirmed by ELISA assay.
as §2, §3
Macrophages (RAW 264.7 cells) were treated with a stimulator LPS at a concentration of 0.1 μg/mL for 24 hours, and then a concentration of IL-6 released in a cell culture medium was confirmed by ELISA assay.

Substance | IL-6 concentration released in cell culture medium
Z20mer-3: ZAG3-derived oligopeptide, SEQ ID NO. 22: KAREDIFMETLKDIVEYYND (ZAG protein-derived peptide) | significantly decreased

same assay, conditions: Table 3; 1 μg/mL for 24 hours, then LPS 0.1 μg/mL 24 hours; vs stimulator only

Substance | RAW 264.7 (mouse) IL-6
Z1: ZAG protein-derived peptide, SEQ ID NO. 1: QENQDGRYSLTYIYTGLSKHVEDVPAFQAL (ZAG protein-derived peptide) | •
Z2: ZAG protein-derived peptide, SEQ ID NO. 2: GSLNDLQFFRYNSKDRKSQPMGLWRQVEGM (ZAG protein-derived peptide) | •
Z9: ZAG protein-derived peptide, SEQ ID NO. 9: TYQSWVVVAVPPQDTAPYSCHVQHSSLAQP (listed as Homo sapiens) | •
Z10: ZAG protein-derived peptide, SEQ ID NO. 10: GLSKHVEDVPAFQALGSLNDLQFFRYNSKD (ZAG protein-derived peptide) | •

same assay, conditions: Table 5; 1 μg/mL for 24 hours, then LPS 0.1 μg/mL 24 hours; vs positive control

Substance | RAW 264.7 (mouse) IL-6
Z20mer-3: ZAG3-derived oligopeptide, SEQ ID NO. 22: KAREDIFMETLKDIVEYYND (ZAG protein-derived peptide) | •
